Paper PMC9299836 (eLife, 2022)
Several values for one entry are separate records, joined by “and”; a condition that tells them apart may be missing. Equal entries are not always repeated.

Assays:
[1] = biological target: mGluR2 (Mus musculus, UniProt Q14BI2, INS715F); experiment: Live-cell FRET, azi-ECL2 (7TM domain, extracellular loop 2) sensor in HEK293T cells; conditions: for Mean normalized azi-ECL2 FRET response: glutamate + 10μM modulator, maximal response normalized to 1mM glutamate;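 for all read-outs here: Cy3/Cy5 click-labeled sensor, whole-membrane ROIs per cell, apparent FRET after bleed-through correction, ΔFRET as treatment minus pre-treatment signal, at room temperature, at least three biological replicates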
Chain of mGluR2 (Mus musculus, UniProt Q14BI2, INS715F) (Q14BI2 with tags, fused parts or gaps INS715F): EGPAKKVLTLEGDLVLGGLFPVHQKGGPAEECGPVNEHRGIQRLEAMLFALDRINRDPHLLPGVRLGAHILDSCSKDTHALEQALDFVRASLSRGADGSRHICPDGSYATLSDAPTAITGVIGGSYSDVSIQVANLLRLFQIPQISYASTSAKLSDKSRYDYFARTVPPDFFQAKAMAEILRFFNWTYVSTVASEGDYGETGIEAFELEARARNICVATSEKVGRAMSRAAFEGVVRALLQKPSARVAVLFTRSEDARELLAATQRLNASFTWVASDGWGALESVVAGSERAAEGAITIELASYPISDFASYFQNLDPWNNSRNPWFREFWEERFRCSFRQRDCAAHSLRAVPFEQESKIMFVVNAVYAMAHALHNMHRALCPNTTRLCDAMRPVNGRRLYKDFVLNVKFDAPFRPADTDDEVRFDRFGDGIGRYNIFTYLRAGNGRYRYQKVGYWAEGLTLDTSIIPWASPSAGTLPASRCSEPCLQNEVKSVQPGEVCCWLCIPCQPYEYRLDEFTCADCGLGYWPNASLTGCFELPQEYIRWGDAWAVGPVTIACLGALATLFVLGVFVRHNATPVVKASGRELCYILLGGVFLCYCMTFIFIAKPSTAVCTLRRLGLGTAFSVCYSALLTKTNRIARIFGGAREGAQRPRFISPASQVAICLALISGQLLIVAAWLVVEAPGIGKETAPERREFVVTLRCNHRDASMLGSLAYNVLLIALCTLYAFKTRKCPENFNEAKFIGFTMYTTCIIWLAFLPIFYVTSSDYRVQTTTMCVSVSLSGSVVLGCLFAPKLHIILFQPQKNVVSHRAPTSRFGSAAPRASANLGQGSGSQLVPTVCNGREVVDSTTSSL

[2] = biological target: mGluR2 (Mus musculus, UniProt Q14BI2, A548F); experiment: Live-cell FRET, azi-CRD (cysteine-rich domain) sensor in HEK293T cells; conditions: for azi-CRD normalized FRET response, Mean / azi-CRD normalized FRET response, individual cell: Glutamate + 10μM modulator (NAM); for azi-CRD normalized FRET response, Mean: maximal response normalized to 1mM glutamate; for azi-CRD normalized FRET response, individual cell: single-cell replicate
Chain of mGluR2 (Mus musculus, UniProt Q14BI2, A548F) (Q14BI2 19-872 A548F): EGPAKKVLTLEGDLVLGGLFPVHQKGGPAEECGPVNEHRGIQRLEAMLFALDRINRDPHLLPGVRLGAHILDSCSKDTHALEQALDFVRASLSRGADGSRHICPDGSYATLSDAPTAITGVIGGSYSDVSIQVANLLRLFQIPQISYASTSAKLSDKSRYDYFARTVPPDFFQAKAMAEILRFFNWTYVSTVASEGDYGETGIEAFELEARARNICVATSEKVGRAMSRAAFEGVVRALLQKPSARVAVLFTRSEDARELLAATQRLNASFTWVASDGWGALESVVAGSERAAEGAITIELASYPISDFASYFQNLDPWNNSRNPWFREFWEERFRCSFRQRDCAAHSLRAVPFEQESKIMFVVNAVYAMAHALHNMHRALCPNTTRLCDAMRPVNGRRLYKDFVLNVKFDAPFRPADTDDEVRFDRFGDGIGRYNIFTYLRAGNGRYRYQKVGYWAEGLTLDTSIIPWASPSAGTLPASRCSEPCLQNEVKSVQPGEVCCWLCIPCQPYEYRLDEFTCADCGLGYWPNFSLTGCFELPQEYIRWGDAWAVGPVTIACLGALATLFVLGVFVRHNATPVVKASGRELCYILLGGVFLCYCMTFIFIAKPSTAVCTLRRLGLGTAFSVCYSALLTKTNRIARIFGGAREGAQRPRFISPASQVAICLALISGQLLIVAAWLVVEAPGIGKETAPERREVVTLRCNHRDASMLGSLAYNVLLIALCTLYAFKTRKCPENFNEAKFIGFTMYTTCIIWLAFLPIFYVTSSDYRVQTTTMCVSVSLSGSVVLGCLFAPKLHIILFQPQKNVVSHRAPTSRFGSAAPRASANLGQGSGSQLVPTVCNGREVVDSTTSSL

[3] = biological target: T1, mGluR2 (Mus musculus, UniProt Q14BI2); experiment: Functional calcium imaging, SNAP-mGluR2 (no FLAG-tag) with chimeric G protein Gqo5 in HEK293T cells; type: cell-based; set-up: Full length mGluR2 construct with an amber codon (TAG) mutation of amino acid A548 (azi-CRD) or N-terminal SNAP-tag (SNAP-mGluR2); host or cells: HEK293T; conditions: for Intracellular Ca2+ Response (normalized to 1mM glutamate), Mean: Glutamate + 90nM Ro 64-5229
T1 sequence (Q14BI2 19-872): as the sequence (Q14BI2 19-872 A548F) above, with F530A counted along it

[4] = biological target: T1, mGluR2; experiment: Live-cell FRET, SNAP-m2 (VFT domain) inter-subunit sensor in HEK293T cells; conditions: for Mean normalized FRET response, SNAP-m2 NAM DRC: glutamate + 10μM modulator, maximal response normalized to 1mM glutamate;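 for all read-outs here: apparent FRET efficiency from whole-membrane ROIs of single cells, corrected for donor bleed-through and background, ΔFRET as treatment minus pretreatment signal, recorded at room temperature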
[5] = 10μM Ro 64-5229, ([1 mM glutamate + modulator] - [1 mM glutamate]) × 100

- azi-ECL2 - ΔEfficacy, Mean ΔEfficacy [1, 5]: -16.382
- Mean ΔPotency ([1]; 10μM modulator, (([modulator + glutamate]EC50 – [glutamate] EC50)/[glutamate] EC50) × 100): 238.581
- Mean max response (normalized max ΔFRET) ([1]; azi-ECL2, 1 mM glutamate + 10 μM modulator, normalized to 1 mM glutamate): 0.84
- Hill slope of glutamate titration ([1]; azi-ECL2 sensor, + 10 μM modulator): 1.07
- Mean normalized azi-ECL2 FRET response ([1]; log[Glutamate] (M) -3): 0.8362
- Mean normalized azi-ECL2 FRET response ([1]; log[Glutamate] (M) -4.1549): 0.6516
- Mean normalized azi-ECL2 FRET response ([1]; log[Glutamate] (M) -4.52288): 0.5392
- Mean normalized azi-ECL2 FRET response ([1]; log[Glutamate] (M) -5): 0.3248
- Mean normalized azi-ECL2 FRET response ([1]; log[Glutamate] (M) -5.39794): 0.1335
- Mean normalized azi-ECL2 FRET response ([1]; log[Glutamate] (M) -5.82391): 0.04706
- Mean normalized azi-ECL2 FRET response ([1]; log[Glutamate] (M) -6.52288): 0
- Mean normalized azi-ECL2 FRET response ([1]; log[Glutamate] (M) -7): 0
- Mean normalized azi-ECL2 FRET response ([1]; log[Glutamate] (M) -7.69897): 0
- Mean normalized azi-ECL2 FRET response ([1]; log[Glutamate] (M) -4.69897): 0.5381
- azi-CRD - ΔEfficacy, Mean ΔEfficacy [2, 5]: -41.4006
- azi-CRD normalized FRET response, Mean ([2]; log[Glutamate] (M) -3): 0.586
- azi-CRD normalized FRET response, individual cell ([2]; log[Glutamate] (M) -3): 0.586
- azi-CRD normalized FRET response, Mean ([2]; log[Glutamate] (M) -4.1549): 0.5093
- azi-CRD normalized FRET response, Mean ([2]; log[Glutamate] (M) -4.52288): 0.3977
- azi-CRD normalized FRET response, Mean ([2]; log[Glutamate] (M) -5): 0.2248
- azi-CRD normalized FRET response, Mean ([2]; log[Glutamate] (M) -5.39794): 0.1255
- azi-CRD normalized FRET response, Mean ([2]; log[Glutamate] (M) -5.82391): 0.06192
- azi-CRD normalized FRET response, Mean ([2]; log[Glutamate] (M) -6.52288): 0.03074
- azi-CRD normalized FRET response, Mean ([2]; log[Glutamate] (M) -7): 0
- azi-CRD normalized FRET response, individual cell ([2]; log[Glutamate] (M) -7): 0
- Hill slope of glutamate titration ([2]; azi-CRD sensor, + 10 μM modulator): 1.05
- Mean max response (normalized max ΔFRET) ([2]; azi-CRD, 1 mM glutamate + 10 μM modulator, normalized to 1 mM glutamate): 0.59
- Mean ΔPotency ([2]; azi-CRD, 10μM modulator, (([modulator + glutamate]EC50 – [glutamate] EC50)/[glutamate] EC50) × 100): 46.1673
- Effect on receptor activation (calcium imaging) in the presence of glutamate ([3]; 10 μM NAM): block receptor activation
- Intracellular Ca2+ Response, % 1mM Glutamate ([3]; 1mM Glutamate + 90nM Ro 64-5229, individual experiments): 79.692% and 78.096% and 66.28%
- Mean ΔEfficacy of glutamate ([3]; Ca2+ response, 1 mM glutamate + 90 nM modulator, ([1 mM glutamate + modulator] - [1 mM glutamate]) × 100): -25.3109
- ΔEfficacy of glutamate, individual experiments ([3]; Ca2+ response, 1 mM glutamate + 90 nM modulator, single replicate): -21.9043 and -33.7198 and -20.3084
- Mean ΔPotency of glutamate ([3]; Ca2+ response, glutamate + 90 nM modulator, (([modulator + glutamate]EC50 – [glutamate]EC50)/[glutamate]EC50) × 100): 160.286
- ΔPotency of glutamate, individual experiments ([3]; Ca2+ response, glutamate + 90 nM modulator, single replicate): 46.8661 and 141.491 and 292.502
- Intracellular Ca2+ Response (normalized to 1mM glutamate), Mean ([3]; log[Glutamate] (M) -3): 0.7469
- Intracellular Ca2+ Response (normalized to 1mM glutamate), Mean ([3]; log[Glutamate] (M) -3.60206): 0.7222
- Intracellular Ca2+ Response (normalized to 1mM glutamate), Mean ([3]; log[Glutamate] (M) -4.1549): 0.5737
- Intracellular Ca2+ Response (normalized to 1mM glutamate), Mean ([3]; log[Glutamate] (M) -4.52288): 0.2233
- Intracellular Ca2+ Response (normalized to 1mM glutamate), Mean ([3]; log[Glutamate] (M) -5): 0.1471
- Intracellular Ca2+ Response (normalized to 1mM glutamate), Mean ([3]; log[Glutamate] (M) -5.39794): 0
- Intracellular Ca2+ Response (normalized to 1mM glutamate), Mean ([3]; log[Glutamate] (M) -5.82391): 0
- Intracellular Ca2+ Response (normalized to 1mM glutamate), Mean ([3]; log[Glutamate] (M) -6.52288): 0
- Intracellular Ca2+ Response (normalized to 1mM glutamate), Mean ([3]; log[Glutamate] (M) -7): 0
- SNAP-m2 - ΔEfficacy, Mean ΔEfficacy [4, 5]: -12.5077
- Mean max response (normalized max ΔFRET) ([4]; SNAP-m2, 1 mM glutamate + 10 μM modulator, normalized to 1 mM glutamate): 0.87
- Mean ΔPotency ([4]; SNAP-m2, 10μM modulator, (([modulator + glutamate]EC50 – [glutamate] EC50)/[glutamate] EC50) × 100): 64.9494
- Mean ΔEfficacy ([4]; SNAP-m2, 10μM modulator, ([1 mM glutamate + modulator] - [1 mM glutamate]) × 100): -12.5077
- Hill slope of glutamate titration ([4]; SNAP-m2 sensor, + 10 μM modulator): –1.52
- Mean normalized FRET response, SNAP-m2 NAM DRC ([4]; log[Glutamate] (M) -3): -0.8749
- Mean normalized FRET response, SNAP-m2 NAM DRC ([4]; log[Glutamate] (M) -4.1549): -0.7502
- Mean normalized FRET response, SNAP-m2 NAM DRC ([4]; log[Glutamate] (M) -4.52288): -0.5932
- Mean normalized FRET response, SNAP-m2 NAM DRC ([4]; log[Glutamate] (M) -5): -0.2293
- Mean normalized FRET response, SNAP-m2 NAM DRC ([4]; log[Glutamate] (M) -5.39794): -0.07065
- Mean normalized FRET response, SNAP-m2 NAM DRC ([4]; log[Glutamate] (M) -5.82391): -0.0217
- Mean normalized FRET response, SNAP-m2 NAM DRC ([4]; log[Glutamate] (M) -6.52288): 0
- Mean normalized FRET response, SNAP-m2 NAM DRC ([4]; log[Glutamate] (M) -7): 0
- Mean normalized FRET response, SNAP-m2 NAM DRC ([4]; log[Glutamate] (M) -7.69897): 0
- Mean normalized FRET response, SNAP-m2 NAM DRC ([4]; log[Glutamate] (M) -4.69897): -0.4605
Structure (SMILES): Clc1cccc(Cl)c1/C(=C/n1cncn1)OC1CCCCCC1 [Ro 64–5229]
- ΔPotency, individual cell responses ([1]; 10μM modulator, single cells, (([modulator + glutamate]EC50 – [glutamate] EC50)/[glutamate] EC50) × 100): 105.749 and 188.087 and 277.044 and 382.546 and 239.476
- ΔEfficacy, individual cell responses ([1]; 10μM modulator, single cells, ([1 mM glutamate + modulator] - [1 mM glutamate]) × 100): -3.67 and -2.778 and -15 and -26.6667 and -29.3756 and -15.3219 and -1.127 and -37.1174
- Live-cell FRET max response normalized to 1mM glutamate ([1]; azi-ECL2 sensor, Glutamate + 10μM Ro 64-5229, individual values (N=8)): 0.7062 and 0.8468 and 0.9887 and 0.6288 and 0.9633 and 0.9722 and 0.85 and 0.7333
- azi-CRD - ΔEfficacy, individual cell responses ([2]; 10μM Ro 64-5229, single cells): -28.0702 and -27.0053 and -21.7759 and -17.8571 and -54.2848 and -56.1085 and -49.8998 and -39.7625 and -52.6646 and -45.8685 and -32.6644 and -42.4305 and -51.9931 and -35.5526 and -41.2702 and -37.27 and -50.0412 and -60.6915
- azi-CRD normalized FRET response, individual cell ([2]; log[Glutamate] (M) -4.1549): 0.5346 and 0.4622 and 0.5203 and 0.5084 and 0.5826 and 0.5517 and 0.4974 and 0.5062 and 0.5143 and 0.4926 and 0.4963 and 0.4643 and 0.4905
- azi-CRD normalized FRET response, individual cell ([2]; log[Glutamate] (M) -4.52288): 0.3335 and 0.3611 and 0.3991 and 0.4165 and 0.5072 and 0.4352 and 0.378 and 0.3755 and 0.3785 and 0.4157 and 0.3821 and 0.3693 and 0.4189
- azi-CRD normalized FRET response, individual cell ([2]; log[Glutamate] (M) -5): 0.1496 and 0.3033 and 0.2652 and 0.2455 and 0.317 and 0.2125 and 0.1682 and 0.183 and 0.1871 and 0.1831 and 0.172 and 0.2951 and 0.2409
- azi-CRD normalized FRET response, individual cell ([2]; log[Glutamate] (M) -5.39794): 0.1184 and 0.1898 and 0.1288 and 0.1204 and 0.1285 and 0.1251 and 0.1085 and 0.1183 and 0.1305 and 0.09889 and 0.1192 and 0.1155 and 0.1302
- azi-CRD normalized FRET response, individual cell ([2]; log[Glutamate] (M) -5.82391): 0.04987 and 0.1052 and 0.0682 and 0.05385 and 0.04969 and 0.05654 and 0.05788 and 0.05365 and 0.05774 and 0.05311 and 0.05405 and 0.04746 and 0.09767
- azi-CRD normalized FRET response, individual cell ([2]; log[Glutamate] (M) -6.52288): 0.03117 and 0.03301 and 0.02778 and 0.02217 and 0.02741 and 0.0634 and 0.03617 and 0.02751 and 0.02353 and 0.01178 and 0.01113 and 0.04333 and 0.04124
- Live-cell FRET max response normalized to 1mM glutamate ([2]; azi-CRD sensor, Glutamate + 10μM Ro 64-5229, individual values (N=18)): 0.4572 and 0.4389 and 0.501 and 0.6024 and 0.4733 and 0.5413 and 0.6734 and 0.5757 and 0.4801 and 0.6445 and 0.5873 and 0.6273 and 0.4996 and 0.3931 and 0.7193 and 0.7299 and 0.7822 and 0.8214
- ΔPotency, individual cell ([2]; azi-CRD, 10μM modulator, calculated from individual cell responses): 111.788 and 54.4953 and 84.4604 and 80.2661 and 72.5435 and 46.8592 and 26.2598 and 27.1246 and 2.91 and 18.4766 and 20.2062 and -17.7582
